Read-outs that look alike come from different tables or passages of the source.
Legend:
[1] = biological target: T1, bovine serum albumin (BSA) (Bos taurus, UniProt P02769); assay: NP TLC on plates impregnated with bovine serum albumin; format: binding; settings: for NP (Rf, BSA-impregnated NP plate): Table S3, NP plate impregnated with 2 mg/mL BSA, pH 7.4 mobile phase; for NP (Rf value from the NP plate impregnated with 2 mg/mL BSA solution): Table S8, external group
T1 construct: purchased Sigma Aldrich
T1 sequence (P02769 25-607): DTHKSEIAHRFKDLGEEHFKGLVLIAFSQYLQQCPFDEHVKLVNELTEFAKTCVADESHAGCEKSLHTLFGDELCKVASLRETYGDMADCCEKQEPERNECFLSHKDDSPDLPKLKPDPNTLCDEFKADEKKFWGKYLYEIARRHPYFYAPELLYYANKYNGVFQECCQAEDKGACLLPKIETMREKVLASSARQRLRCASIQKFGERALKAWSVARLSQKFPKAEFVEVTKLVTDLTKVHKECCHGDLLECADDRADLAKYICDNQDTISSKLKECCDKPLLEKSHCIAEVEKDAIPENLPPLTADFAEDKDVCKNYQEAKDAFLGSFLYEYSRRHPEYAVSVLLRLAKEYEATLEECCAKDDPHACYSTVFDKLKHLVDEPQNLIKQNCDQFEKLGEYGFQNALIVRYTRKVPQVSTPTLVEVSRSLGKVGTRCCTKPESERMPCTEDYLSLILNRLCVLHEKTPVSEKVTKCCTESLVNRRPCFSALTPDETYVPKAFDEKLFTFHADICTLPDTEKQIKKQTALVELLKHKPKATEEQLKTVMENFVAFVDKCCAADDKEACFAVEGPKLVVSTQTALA

[2] = biological target: T1, bovine serum albumin (BSA); assay: RP TLC on plates impregnated with bovine serum albumin; format: binding; settings: for RP (Rf, BSA-impregnated RP plate): Table S4, RP plate impregnated with 2 mg/mL BSA, pH 7.4 mobile phase; for RP (Rf value from the RP plate impregnated with 2 mg/mL BSA solution): Table S8, external group
Source text: Chromatographic descriptors were obtained in experiments, thin layer chromatography in normal (NP TLC) and reversed mode (RP TLC). The stationary phase was modified with bovine serum albumin (BSA). TLC was the source of retention factor (Rf) values, denoted in statistical models as NP and RP.
(§1) For TLC chromatography, glass plates 20 × 20 cm from Merck, covered with silica gel with the addition of a fluorescent indicator, were used. Normal phase (NP) plates were used with standard Merck TLC Silica gel 60 F254 plates, while in reverse phase (RP) silanized plates RP-2: Merck TLC Silica gel 60 RP-2 F254 were used.
The stationary phase of the plates, both NP and RP, was modified with an aqueous solution of bovine serum albumin purchased from Sigma Aldrich (bovine serum albumin, lyophilized powder).
The impregnation of the plates was carried out with a 2 mg/mL solution applied to the surface using a Desaga SG 1 hand sprayer; the plates were then air dried. […] Normal and reversed phase thin layer chromatography (NP TLC and RP TLC respectively) was performed using silica-gel-coated glass plates. Half of them were covered with 2 mg/mL bovine serum albumin solution and half remained pure.
(§2) The mobility of the compounds was also determined on the plates with no protein as a modifier. […] The acetate buffer (20 mM) was prepared by dissolving 1.54 g of ammonium acetate in 1 L of distilled water. The pH was then adjusted with a concentrated ammonia solution using a pH meter. The plates were developed in standard, vertical chromatographic chambers, each time using 100 mL of the mobile phase, after the chamber was previously saturated with solvent vapors for approximately 1 h.
(§3) The unfolded-protein-impregnated plates and the control plates were scanned with a Desaga CD 60 densitometer. The values of the delay factor (Rf) were collected, i.e., the ratio of the distance traveled by the substance to be analyzed to the distance traveled through the front of the mobile phase. […] The experiment was repeated (for both BSA-coated and control plates) and the Rf values pooled are the mean of both series of experiments.

[3] = NP TLC on non-impregnated control plates; format: physicochemical; settings: for CNP (Rf, control NP plate): Table S3, non-impregnated NP plate, acetonitrile/acetate buffer pH 7.4/methanol 60:20:20; for CNP (Rf value from the non-impregnated NP plate, control): Table S8, external group
Procedure: as §1
(§4) Normal and reversed phase thin layer chromatography (NP TLC and RP TLC respectively) was performed using silica-gel-coated glass plates. Half of them were covered with 2 mg/mL bovine serum albumin solution and half remained pure.
as §2, §3

[4] = RP TLC on non-impregnated control plates; format: physicochemical; settings: for CRP (Rf, control RP plate): Table S4, non-impregnated RP plate, acetonitrile/acetate buffer pH 7.4/methanol 60:20:20; for CRP (Rf value from the non-impregnated RP plate, control): Table S8, external group
Procedure: as §1, §4, §2, §3

[5] = HPLC on immobilized artificial membrane column (HPLCIAM); format: physicochemical; settings: for log k IAM: Table S5, IAM column, pH 7.4; for k IAM: Table S5, retention factor, IAM column, phosphate buffer pH 7.4/acetonitrile 80:20; for log kIAM / kIAM: Table S9, external group
[6] = biological target: T2, human serum albumin (HSA) (Homo sapiens, UniProt P02768)
T2 sequence (P02768 25-609): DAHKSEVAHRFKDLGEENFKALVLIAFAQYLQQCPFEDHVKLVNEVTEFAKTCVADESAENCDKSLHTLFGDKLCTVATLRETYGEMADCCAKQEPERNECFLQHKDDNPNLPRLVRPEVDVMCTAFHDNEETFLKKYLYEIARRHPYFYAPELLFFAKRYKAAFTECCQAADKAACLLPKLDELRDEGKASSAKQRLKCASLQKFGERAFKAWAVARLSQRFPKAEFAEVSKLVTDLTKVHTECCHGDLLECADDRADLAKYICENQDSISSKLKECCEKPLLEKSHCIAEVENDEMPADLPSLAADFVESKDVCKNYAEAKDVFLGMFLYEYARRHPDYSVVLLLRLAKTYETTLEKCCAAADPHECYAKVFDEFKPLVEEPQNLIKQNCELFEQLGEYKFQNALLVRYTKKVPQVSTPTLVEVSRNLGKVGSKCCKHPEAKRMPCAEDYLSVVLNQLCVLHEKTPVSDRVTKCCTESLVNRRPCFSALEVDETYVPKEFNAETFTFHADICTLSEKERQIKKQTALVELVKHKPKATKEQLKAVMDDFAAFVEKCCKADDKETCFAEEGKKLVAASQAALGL

[7] = biological target: T2, human serum albumin (HSA); assay: in vitro; settings: immobilized hsa column, pH 7.4
[8] = test system: plasma protein; settings: ref DrugBank [7], cited from earlier work
[9] = ref DrugBank [7], cited from earlier work
[10] = Table S6, external group (n = 38); cited from earlier work
[11] = Table S1, plasma protein binding given as fraction
[12] = Table S6, external group (n = 38), given as fraction
[13] = Table S6, external group, coded 1/0
[14] = Table S5, retention factor, HSA column, pH 7.4, 25 degrees Celsius
[15] = human, immobilized hsa column, pH 7.4

SMILES	NP (Rf, BSA-impregnated NP plate) [1]	RP (Rf, BSA-impregnated RP plate) [2]	CNP (Rf, control NP plate) [3]	CRP (Rf, control RP plate) [4]	log k IAM [5]	k IAM [5]	chromatographic logD [7]	PB [8, 11]	CNS+/- ([9]; Table S1, coded 1/0)	NP (Rf value from the NP plate impregnated with 2 mg/mL BSA solution) [1]	RP (Rf value from the RP plate impregnated with 2 mg/mL BSA solution) [2]	CNP (Rf value from the non-impregnated NP plate, control) [3]	CRP (Rf value from the non-impregnated RP plate, control) [4]	log kIAM [5]	kHSA ([6]; Table S9, external group)	M/P [10]	PB [8, 12]	CNS+/- [9, 13]	k HSA [6, 14]	kIAM [5]	other results
O=C1CN=C(c2ccccn2)c2cc(Br)ccc2N1 [bromazepam]	0.90	0.81	0.87	0.83	0.34	2.21	-0.2	0.7	1												k HSA ([6]; pH 7.4): 0.63
CCCCN1CCCCC1C(=O)Nc1c(C)cccc1C (stereo not shown) [bupivacaine]										0.67	0.75	0.67	0.74	0.48	1.18	0.37	0.95	1			log kHSA ([6]; Table S9, external group): 0.07
CO/N=C(\C(=O)N[C@@H]1C(=O)N2C(C(=O)O)=C(COC(N)=O)CS[C@H]12)c1ccco1 [cefuroxime]	0.98	0.87	0.97	0.88	0.23	1.69	-0.64	0.5	0										0.23		
CN1CCC(=C2c3ccccc3C=Cc3ccccc32)CC1 [cyproheptadine]	0.43	0.47	0.45	0.45	1.38	23.79	0.99	0.975	1										9.7		
CN(C)CCC=C1c2ccccc2COc2ccccc21 [doxepin]										0.31	0.54	0.30		0.45	4.25	1.37	0.76	1		2.81	log kHSA [6, 15]: 0.63
CN1CCC[C@@H]1Cc1c[nH]c2ccc(CCS(=O)(=O)c3ccccc3)cc12 [eletriptan]														0.55	3.78	0.25		1		3.57	log kHSA [6, 15]: 0.58
COC(=O)[C@@H]1CC2=CC(=O)CC[C@]2(C)[C@@]23O[C@@H]2C[C@@]2(C)[C@@H](CC[C@@]24CCC(=O)O4)[C@H]13 [eplerenone]	0.94	0.85	0.94	0.84	0.19	1.54	-0.68	0.5	1										0.21		
CC[C@@H](CO)NCCN[C@@H](CC)CO [ethambutol]										0.21	0.95	0.19	0.97	0.34	1.73	1.00		0		2.18	log kHSA [6, 15]: 0.24
Cc1ccc(S(=O)(=O)NC(=O)NN2CC3CCCC3C2)cc1 (stereo not shown) [gliclazide]	0.95	0.80	0.95	0.83	-0.55	0.28	0.99	0.94	1										9.69		
CN1CCC(=C2c3ccccc3CC(=O)c3sccc32)CC1 [ketotifen]	0.36	0.74	0.34	0.75	1.34	22.04	0.77	0.75	1										5.83		
CC[C@@H](C(N)=O)N1CCCC1=O [levetiracetam]										0.92	0.92	0.92	0.92	0.21	0.07	1.00	0.10	1		1.62	log kHSA ([6]; Table S9, external group): -1.16
CCC[C@@H]1C[C@@H](C(=O)N[C@@H]([C@H]2O[C@H](SC)[C@H](O)[C@@H](O)[C@H]2O)[C@@H](C)O)N(C)C1 [lincomycin]							-0.08			0.91		0.91		0.59	0.82	0.15	0.70	0		3.89	
Nc1ccc(O)c(C(=O)O)c1 [mesalazine]							-0.73				0.97		0.99	0.11	0.18	2.69	0.43	0		1.28	
CCOC(=O)C1=C(C)NC(C)=C(C(=O)OC)C1c1cccc([N+](=O)[O-])c1 (stereo not shown) [nitrendipine]										0.97	0.86	0.97	0.86	0.47	3.55	0.30	0.99	0		2.98	log kHSA ([6]; Table S9, external group): 0.55
NC(=O)N1c2ccccc2CC(=O)c2ccccc21 [oxcarbamazepine]										0.90	0.91	0.91	0.91	0.35	0.40	0.50	0.40	1		2.26	log kHSA ([6]; Table S9, external group): -0.40
CC(N)C12CC3CC(CC(C3)C1)C2 (stereo not shown) [rimantadine]										0.92	0.95	0.92	0.95	0.28	0.16	2.00		1		1.91	
CCCc1nn(C)c2c(=O)[nH]c(-c3cc(S(=O)(=O)N4CCN(C)CC4)ccc3OCC)nc12 [sildenafil]	0.67	0.76	0.69	0.77	1.15	14.26	0.21	0.96	1										1.62		

Source: paper PMC9182007, “Statistical Methods in the Study of Protein Binding and Its Relationship to Drug Bioavailability in Breast Milk” (Molecules, 2022)
